From the NIST ThermoML archive (doi:10.1021/acs.jced.6b00718)
± gives the expanded uncertainty stated by the source.

Assay: xn = mol fraction of the nth substance listed
Conditions: 101 kPa, Liquid; for electrical conductivity: Alternating current cell with electrodes, x2 = 0.2889; for viscosity: Falling or rolling sphere viscometry; for mass density: Vibrating tube method

N#CCCCCC#N [hexanedinitrile] + CCCC[N+]1(C)CCCC1.O=S(=O)([N-]S(=O)(=O)C(F)(F)F)C(F)(F)F
Conditions | electrical conductivity [S/m]
291.8 K | 0.495 ± 0.012
295.2 K | 0.551 ± 0.014
299.3 K | 0.62 ± 0.014
303.9 K | 0.702 ± 0.016
313.4 K | 0.9 ± 0.02
322.2 K | 1.1 ± 0.024
332.9 K | 1.37 ± 0.03

Conditions | mass density [kg/m3] | viscosity [mPa·s]
293.15 K, x2 = 0 | 962.3 ± 1.9 | 7.17 ± 0.44
293.15 K, x2 = 0.1002 | 1063.5 ± 3 | 9.85 ± 0.6
293.15 K, x2 = 0.1996 | 1138 ± 2.8 | 13.22 ± 0.81
293.15 K, x2 = 0.3004 | 1196.8 ± 2.7 | 17.56 ± 1.1
293.15 K, x2 = 0.3995 | 1243 ± 2.7 | 25.01 ± 1.5
293.15 K, x2 = 0.5001 | 1281.6 ± 2.7 | 31 ± 1.9
293.15 K, x2 = 0.6 | 1313.1 ± 2.8 | 37.48 ± 2.3
293.15 K, x2 = 0.7011 | 1340 ± 2.8 | 48.32 ± 2.9
293.15 K, x2 = 0.7996 | 1362.5 ± 2.8 | 59.96 ± 3.6
293.15 K, x2 = 0.8997 | 1382.3 ± 2.8 | 77.23 ± 4.8
298.15 K, x2 = 0 | 958.6 ± 1.9 | 6.31 ± 0.38
298.15 K, x2 = 0.1002 | 1059.5 ± 3 | 8.45 ± 0.52
298.15 K, x2 = 0.1996 | 1133.9 ± 2.8 | 11.27 ± 0.69
298.15 K, x2 = 0.3004 | 1192.5 ± 2.7 | 14.79 ± 0.91
298.15 K, x2 = 0.3995 | 1238.7 ± 2.7 | 21.46 ± 1.3
298.15 K, x2 = 0.5001 | 1277.3 ± 2.7 | 25.62 ± 1.6
298.15 K, x2 = 0.6 | 1308.6 ± 2.7 | 30.92 ± 1.9
298.15 K, x2 = 0.7011 | 1335.6 ± 2.8 | 39.22 ± 2.4
298.15 K, x2 = 0.7996 | 1358.2 ± 2.8 | 48.21 ± 2.9
298.15 K, x2 = 0.8997 | 1378 ± 2.8 | 61.49 ± 3.8
303.15 K, x2 = 0 | 954.8 ± 1.9 | 5.53 ± 0.34
303.15 K, x2 = 0.1002 | 1055.6 ± 3 | 7.35 ± 0.45
303.15 K, x2 = 0.1996 | 1129.8 ± 2.8 | 9.71 ± 0.59
303.15 K, x2 = 0.3004 | 1188.3 ± 2.7 | 12.61 ± 0.77
303.15 K, x2 = 0.3995 | 1234.4 ± 2.7 | 18.54 ± 1.1
303.15 K, x2 = 0.5001 | 1272.9 ± 2.7 | 21.53 ± 1.3
303.15 K, x2 = 0.6 | 1304.2 ± 2.7 | 25.59 ± 1.6
303.15 K, x2 = 0.7011 | 1331.2 ± 2.8 | 32.33 ± 2
303.15 K, x2 = 0.7996 | 1353.8 ± 2.8 | 39.41 ± 2.4
303.15 K, x2 = 0.8997 | 1373.5 ± 2.8 | 49.74 ± 3
313.15 K, x2 = 0 | 947.2 ± 1.9 | 4.54 ± 0.28
313.15 K, x2 = 0.1002 | 1047.6 ± 3 | 5.72 ± 0.35
313.15 K, x2 = 0.1996 | 1121.5 ± 2.8 | 7.43 ± 0.45
313.15 K, x2 = 0.3004 | 1179.9 ± 2.7 | 9.44 ± 0.58
313.15 K, x2 = 0.3995 | 1225.8 ± 2.7 | 14.05 ± 0.86
313.15 K, x2 = 0.5001 | 1264.2 ± 2.7 | 15.63 ± 0.95
313.15 K, x2 = 0.6 | 1295.3 ± 2.7 | 18.34 ± 1.1
313.15 K, x2 = 0.7011 | 1322.3 ± 2.7 | 22.83 ± 1.4
313.15 K, x2 = 0.7996 | 1344.8 ± 2.8 | 27.42 ± 1.7
313.15 K, x2 = 0.8997 | 1364.5 ± 2.8 | 34.01 ± 2.1
323.15 K, x2 = 0 | 939.8 ± 1.9 | 3.73 ± 0.23
323.15 K, x2 = 0.1002 | 1039.8 ± 3 | 4.53 ± 0.28
323.15 K, x2 = 0.1996 | 1113.4 ± 2.7 | 5.86 ± 0.36
323.15 K, x2 = 0.3004 | 1171.6 ± 2.7 | 7.32 ± 0.45
323.15 K, x2 = 0.3995 | 1217.3 ± 2.7 | 10.01 ± 0.61
323.15 K, x2 = 0.5001 | 1255.6 ± 2.7 | 11.82 ± 0.72
323.15 K, x2 = 0.6 | 1286.7 ± 2.7 | 13.7 ± 0.83
323.15 K, x2 = 0.7011 | 1313.6 ± 2.7 | 16.83 ± 1
323.15 K, x2 = 0.7996 | 1336 ± 2.8 | 19.97 ± 1.2
323.15 K, x2 = 0.8997 | 1355.6 ± 2.8 | 24.42 ± 1.5
333.15 K, x2 = 0 | 932.3 ± 1.9 | 3.02 ± 0.18
333.15 K, x2 = 0.1002 | 1031.9 ± 2.9 | 3.74 ± 0.23
333.15 K, x2 = 0.1996 | 1105.4 ± 2.7 | 4.8 ± 0.29
333.15 K, x2 = 0.3004 | 1163.3 ± 2.6 | 5.87 ± 0.36
333.15 K, x2 = 0.3995 | 1206.3 ± 2.6 | 7.86 ± 0.48
333.15 K, x2 = 0.5001 | 1246.8 ± 2.7 | 9.21 ± 0.56
333.15 K, x2 = 0.6 | 1277.9 ± 2.7 | 10.59 ± 0.64
333.15 K, x2 = 0.7011 | 1304.7 ± 2.7 | 12.85 ± 0.78
333.15 K, x2 = 0.7996 | 1326.7 ± 2.7 | 15.09 ± 0.92
333.15 K, x2 = 0.8997 | 1346.3 ± 2.8 | 18.22 ± 1.1
